Laboratory results from ChEMBL document CHEMBL1125328, “Design and synthesis of a C7 mimetic for the predicted gamma-turn conformation found in several constrained RGD antagonists” (J Med Chem, 1992).
Bridge positions count the residues as written; N and C are the ends. Square brackets hold non-standard residues; d marks the D form. Peptide text beside a SMILES is read from it. NMeR = CN[C@@H](CCCNC(=N)N)C(=O)O

Target: Integrin alpha-IIb/beta-3 (Homo sapiens, UniProt P05106+P08514)
Test: Inhibition of [3H]-107260 binding to purified GPIIb/IIIa of human platelets

Integrin alpha-IIb/beta-3, sequence (P05106 27-788 limits assumed): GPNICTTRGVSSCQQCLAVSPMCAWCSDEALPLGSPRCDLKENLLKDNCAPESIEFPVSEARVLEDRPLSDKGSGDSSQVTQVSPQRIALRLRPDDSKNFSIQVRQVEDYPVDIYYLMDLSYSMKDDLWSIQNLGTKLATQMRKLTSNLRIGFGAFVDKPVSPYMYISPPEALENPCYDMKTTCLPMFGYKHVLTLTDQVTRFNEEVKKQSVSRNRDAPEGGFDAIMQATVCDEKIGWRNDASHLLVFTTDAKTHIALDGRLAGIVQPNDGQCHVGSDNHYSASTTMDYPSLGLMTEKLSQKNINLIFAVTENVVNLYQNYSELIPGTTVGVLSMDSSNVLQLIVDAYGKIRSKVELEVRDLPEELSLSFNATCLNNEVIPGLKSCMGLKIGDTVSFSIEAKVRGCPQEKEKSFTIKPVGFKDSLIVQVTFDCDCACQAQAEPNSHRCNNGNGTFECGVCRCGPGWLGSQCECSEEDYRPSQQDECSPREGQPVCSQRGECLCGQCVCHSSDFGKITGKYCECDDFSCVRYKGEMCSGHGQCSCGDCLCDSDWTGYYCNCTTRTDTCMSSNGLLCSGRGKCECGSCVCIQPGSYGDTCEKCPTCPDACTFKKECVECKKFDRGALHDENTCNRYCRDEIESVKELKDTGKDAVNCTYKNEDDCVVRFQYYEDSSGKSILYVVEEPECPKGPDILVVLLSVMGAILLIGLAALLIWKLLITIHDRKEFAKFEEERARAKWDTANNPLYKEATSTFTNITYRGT
Integrin alpha-IIb/beta-3, sequence (P08514 32-887 limits assumed): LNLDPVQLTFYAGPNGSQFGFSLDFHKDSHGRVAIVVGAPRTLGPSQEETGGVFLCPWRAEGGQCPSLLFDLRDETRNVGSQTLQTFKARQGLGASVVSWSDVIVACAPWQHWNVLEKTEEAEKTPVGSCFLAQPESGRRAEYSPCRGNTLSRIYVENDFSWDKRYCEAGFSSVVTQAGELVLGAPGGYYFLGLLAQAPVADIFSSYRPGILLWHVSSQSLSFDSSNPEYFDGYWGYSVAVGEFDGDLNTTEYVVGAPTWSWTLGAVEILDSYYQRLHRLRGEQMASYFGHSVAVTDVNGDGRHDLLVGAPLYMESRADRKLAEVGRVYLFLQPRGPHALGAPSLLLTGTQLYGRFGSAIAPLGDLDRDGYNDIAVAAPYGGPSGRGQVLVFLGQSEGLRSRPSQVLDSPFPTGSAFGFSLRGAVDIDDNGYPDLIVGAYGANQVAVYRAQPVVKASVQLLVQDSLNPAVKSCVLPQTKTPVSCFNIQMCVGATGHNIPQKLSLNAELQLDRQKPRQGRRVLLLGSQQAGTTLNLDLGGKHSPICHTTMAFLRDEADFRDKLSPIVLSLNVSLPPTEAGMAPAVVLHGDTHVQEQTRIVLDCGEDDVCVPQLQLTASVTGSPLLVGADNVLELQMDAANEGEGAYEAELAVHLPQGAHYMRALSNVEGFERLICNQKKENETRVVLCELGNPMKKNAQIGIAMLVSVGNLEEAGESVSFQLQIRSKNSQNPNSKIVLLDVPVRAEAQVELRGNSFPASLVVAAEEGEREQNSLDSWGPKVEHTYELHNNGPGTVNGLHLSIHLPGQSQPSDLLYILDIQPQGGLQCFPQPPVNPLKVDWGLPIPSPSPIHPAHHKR
Integrin alpha-IIb/beta-3, sequence (P08514 891-1039 limits assumed): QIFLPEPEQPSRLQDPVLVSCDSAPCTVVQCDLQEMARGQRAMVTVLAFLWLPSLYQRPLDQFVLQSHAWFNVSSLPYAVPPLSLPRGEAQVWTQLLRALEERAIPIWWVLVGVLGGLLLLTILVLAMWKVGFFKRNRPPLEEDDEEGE

Row | Ki | Compound
1 | 0.271 µM | CC(=O)N(C)C(CCCNC(=N)N)C(=O)NCC1=CC(CC(=O)O)C(=O)N(c2ccccc2)CC1 (configuration not stated)
2 | 0.175 µM | CC(=O)N[C@H]1CSSC[C@@H](C(N)=O)NC(=O)[C@H](CC(=O)O)NC(=O)CNC(=O)[C@H](CCCN=C(N)N)N(C)C1=O (Ac-C[NMeR]GDC-NH2; disulfide 1-5)
